Experiment: xn = mol fraction of the nth substance listed
Conditions: 101.33 kPa, Liquid, Vibrating tube method

NCCO [2-aminoethan-1-ol] + CO
mass density [kg/m3]
Conditions | 318.15 K | 323.15 K | 328.15 K | 333.15 K
x1 = 0.012 | – | 768.02 | 763.16 | 758.24
x1 = 0.031 | – | 776.31 | 771.48 | 766.6
x1 = 0.05 | – | 784.19 | 779.4 | 774.56
x1 = 0.1 | – | 804.01 | 799.31 | 794.56
x1 = 0.15 | – | 822.17 | 817.54 | 812.87
x1 = 0.2002 | – | 839.11 | 834.54 | 829.94
x1 = 0.2501 | – | 854.48 | 849.96 | 845.4
x1 = 0.2974 | 872.55 | 868.11 | 863.65 | 859.14
x1 = 0.3502 | 886.63 | 882.25 | 877.83 | 873.37
x1 = 0.4001 | 898.67 | 894.33 | 889.95 | 885.53
x1 = 0.4427 | 908.45 | 904.14 | 899.79 | 895.41
x1 = 0.4502 | 910.28 | 905.97 | 901.63 | 897.26
x1 = 0.5002 | 920.74 | 916.46 | 912.15 | 907.81
x1 = 0.5501 | 930.55 | 926.3 | 922.03 | 917.72
x1 = 0.6001 | 939.84 | 935.62 | 931.37 | 927.1
x1 = 0.6501 | 948.51 | 944.31 | 940.1 | 935.85
x1 = 0.7005 | 956.89 | 952.72 | 948.53 | 944.32
x1 = 0.7479 | 963.92 | 959.78 | 955.62 | 951.43
x1 = 0.8002 | 971.82 | 967.71 | 963.57 | 959.42
x1 = 0.8502 | 978.32 | 974.23 | 970.12 | 965.99
x1 = 0.8967 | 984.55 | 980.48 | 976.39 | 972.29
x1 = 0.9501 | 990.85 | 986.81 | 982.75 | –

Source: the NIST ThermoML archive (doi:10.1016/j.tca.2004.11.015)
